From PubChem BioAssay (NCI)
“And” between values parts separate entries of the source, which are not always exact repeats. Equal values may be shown once.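 Assay format: 96-well plates, 48-hour exposure. GI50 = concentration required for 50% inhibition of growth. TGI denotes the concentration required for complete inhibition of growth.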

Legend:
Experiment in all cases: NCI-60 cell line screen, 48 h
A498 renal = test system: A498 renal
ACHN renal = test system: ACHN renal
DU-145 prostate = test system: DU-145 prostate
HCT-15 colon = test system: HCT-15 colon
HS 578T breast = test system: HS 578T breast
SF-268 CNS = test system: SF-268 CNS
SNB-19 CNS = test system: SNB-19 CNS
SW-620 colon = test system: SW-620 colon
TK-10 renal = test system: TK-10 renal
UO-31 renal = test system: UO-31 renal

OCCNc1ncnc2c1ncn2C1OC(CO)C(O)C1O (stereo not drawn)
TGI (A498 renal): > 100 µM | TGI (ACHN renal): > 100 µM | TGI (DU-145 prostate): 67.7 µM | TGI (HCT-15 colon): > 100 µM | TGI (HS 578T breast): > 100 µM | TGI (SF-268 CNS): > 100 µM | TGI (SNB-19 CNS): > 100 µM | TGI (SW-620 colon): > 100 µM | TGI (TK-10 renal): > 100 µM | TGI (UO-31 renal): > 100 µM

CCC[CH2][Ge]([CH2]CCC)([CH2]CCC)[O]C(=O)C(OC)c1ccccc1 (stereo not drawn)
GI50 (A498 renal): 46.8 µM | TGI (A498 renal): > 100 µM | GI50 (ACHN renal): 25.2 µM | TGI (ACHN renal): > 75.2 µM | GI50 (HCT-15 colon): 9.52 µM | TGI (HCT-15 colon): 32.4 µM | GI50 (SF-268 CNS): 40.9 µM | TGI (SF-268 CNS): > 100 µM | GI50 (SNB-19 CNS): > 93.9 µM | TGI (SNB-19 CNS): > 100 µM | GI50 (SW-620 colon): 47.3 µM | TGI (SW-620 colon): > 100 µM | GI50 (TK-10 renal): > 91.9 µM | TGI (TK-10 renal): > 100 µM | GI50 (UO-31 renal): > 41.7 µM | TGI (UO-31 renal): > 100 µM

Cc1ccc(C2(O)CC(c3ccc([N+](=O)[O-])o3)=NN2C(=O)COc2ccccc2Cl)cc1 (stereo not drawn)
TGI (A498 renal): > 100 µM | TGI (ACHN renal): 63.2 µM | TGI (HCT-15 colon): 24.1 µM | TGI (SF-268 CNS): > 76 µM | TGI (SNB-19 CNS): > 100 µM | TGI (SW-620 colon): 72.3 µM | TGI (TK-10 renal): > 86.1 µM | TGI (UO-31 renal): > 100 µM

NCCCC1NC(=O)/C(=C(O)/C=C/C2CCC[C@@H]2CC2SCCS2)C1=O (stereo partly drawn)
TGI (A498 renal): > 100 µM | TGI (ACHN renal): > 100 µM | TGI (SF-268 CNS): > 100 µM | TGI (SNB-19 CNS): > 100 µM | TGI (SW-620 colon): > 100 µM | TGI (TK-10 renal): > 100 µM | TGI (UO-31 renal): > 100 µM

CCOC(=O)C(Cc1ccccc1)NC(=O)OC(C)(C)C (stereo not drawn)
TGI (A498 renal): > 100 µM | TGI (ACHN renal): > 100 µM | TGI (HCT-15 colon): > 100 µM | TGI (SF-268 CNS): > 100 µM | TGI (SNB-19 CNS): > 100 µM | TGI (SW-620 colon): > 100 µM | TGI (TK-10 renal): > 100 µM | TGI (UO-31 renal): > 100 µM

CCc1ccc(Nc2cc(=O)[nH]c(=S)n2C)cc1
TGI (A498 renal): > 100 µM | TGI (HCT-15 colon): > 100 µM | TGI (SF-268 CNS): > 100 µM | TGI (SNB-19 CNS): > 100 µM | TGI (SW-620 colon): > 100 µM | TGI (TK-10 renal): > 100 µM | TGI (UO-31 renal): > 100 µM

Nc1ncnc2c(C3OC(CO)C(O)C3O)scc12 (stereo not drawn)
GI50 (A498 renal): 0.0518 µM | TGI (A498 renal): 0.324 µM and 2.03 µM | GI50 (ACHN renal): 0.127 µM | TGI (ACHN renal): 1.9 µM and 3.66 µM | TGI (HCT-15 colon): 0.584 µM and 0.14 µM | GI50 (SF-268 CNS): 1.41 µM | TGI (SF-268 CNS): 33.3 µM | GI50 (SNB-19 CNS): 4.92 µM | TGI (SNB-19 CNS): 65.6 µM | TGI (SW-620 colon): > 100 µM | GI50 (TK-10 renal): 0.0186 µM | TGI (TK-10 renal): 4.01 µM and 4.24 µM | TGI (UO-31 renal): 4.56 µM

C/C1=C\C/C=C(\C)[C@H]2CC(CC/C(C)=C/CC1)[C@@](C)(CO)O2
GI50 (A498 renal): 54.1 µM | TGI (A498 renal): > 100 µM | GI50 (ACHN renal): > 100 µM | TGI (ACHN renal): > 100 µM | GI50 (DU-145 prostate): > 100 µM | TGI (DU-145 prostate): > 100 µM | GI50 (HCT-15 colon): > 100 µM | TGI (HCT-15 colon): > 100 µM | GI50 (HS 578T breast): > 100 µM | TGI (HS 578T breast): > 100 µM | GI50 (SF-268 CNS): 80.6 µM | TGI (SF-268 CNS): > 100 µM | GI50 (SNB-19 CNS): > 100 µM | TGI (SNB-19 CNS): > 100 µM | GI50 (SW-620 colon): 52.9 µM | TGI (SW-620 colon): > 100 µM | GI50 (UO-31 renal): 21.7 µM | TGI (UO-31 renal): 89.9 µM

CO/N=C(/COc1c(-c2ccccc2)oc2ccccc2c1=O)c1ccc(OC)cc1
GI50 (A498 renal): 32.9 µM | TGI (A498 renal): > 100 µM | GI50 (ACHN renal): > 100 µM | TGI (ACHN renal): > 100 µM | GI50 (DU-145 prostate): > 100 µM | TGI (DU-145 prostate): > 100 µM | GI50 (HCT-15 colon): > 100 µM | TGI (HCT-15 colon): > 100 µM | GI50 (HS 578T breast): > 100 µM | TGI (HS 578T breast): > 100 µM | GI50 (SW-620 colon): > 100 µM | TGI (SW-620 colon): > 100 µM | GI50 (TK-10 renal): > 100 µM | TGI (TK-10 renal): > 100 µM | GI50 (UO-31 renal): 61.3 µM | TGI (UO-31 renal): > 100 µM

CN(C)CC/C(=N\Nc1ccc(Cl)c(Cl)c1)c1ccccc1
TGI (A498 renal): 9.13 µM | TGI (ACHN renal): 3.05 µM | TGI (HCT-15 colon): 4.18 µM | TGI (SF-268 CNS): 3.48 µM | TGI (SNB-19 CNS): 13.8 µM | TGI (SW-620 colon): 3.68 µM | TGI (TK-10 renal): 3.68 µM | TGI (UO-31 renal): 3.25 µM

O=C(OCC1OC(OC(=O)c2cc(O)c(O)c(OC(=O)c3cc(O)c(O)c(O)c3)c2)C(OC(=O)c2cc(O)c(O)c(OC(=O)c3cc(O)c(O)c(O)c3)c2)C(OC(=O)c2cc(O)c(O)c(OC(=O)c3cc(O)c(O)c(O)c3)c2)C1OC(=O)c1cc(O)c(O)c(OC(=O)c2cc(O)c(O)c(O)c2)c1)c1cc(O)c(O)c(OC(=O)c2cc(O)c(O)c(O)c2)c1 (stereo not drawn)
GI50 (ACHN renal): 12.3 µM | TGI (ACHN renal): 32.8 µM | GI50 (DU-145 prostate): 14.8 µM | TGI (DU-145 prostate): > 50 µM | GI50 (HCT-15 colon): 9.73 µM | TGI (HCT-15 colon): > 50 µM | GI50 (SF-268 CNS): 7.21 µM | TGI (SF-268 CNS): 31.3 µM | GI50 (SNB-19 CNS): 24.7 µM | TGI (SNB-19 CNS): > 50 µM | GI50 (SW-620 colon): 21.6 µM | TGI (SW-620 colon): > 50 µM | GI50 (TK-10 renal): 7.46 µM | TGI (TK-10 renal): 28.2 µM | GI50 (UO-31 renal): 17.4 µM | TGI (UO-31 renal): > 50 µM

CCC[CH2][Sn]([CH2]CCC)([O]C(=O)c1cc(OC)c(OC)cc1OC)[O]C(=O)c1cc(OC)c(OC)cc1OC
GI50 (A498 renal): 1.48 µM | TGI (A498 renal): 3.21 µM | GI50 (ACHN renal): 1.62 µM | TGI (ACHN renal): 3 µM | GI50 (HCT-15 colon): 1.26 µM | TGI (HCT-15 colon): 2.92 µM | GI50 (SF-268 CNS): 1.23 µM | TGI (SF-268 CNS): 2.54 µM | GI50 (SNB-19 CNS): 0.626 µM | TGI (SNB-19 CNS): 1.82 µM | GI50 (SW-620 colon): 1.13 µM | TGI (SW-620 colon): 2.83 µM | GI50 (TK-10 renal): 1.5 µM | TGI (TK-10 renal): 2.84 µM | GI50 (UO-31 renal): 1.57 µM | TGI (UO-31 renal): 2.92 µM

Cc1ccccc1-c1c(N)nc(N)nc1C(=O)Nc1nccs1
TGI (A498 renal): > 100 µM | TGI (ACHN renal): > 100 µM | TGI (HCT-15 colon): > 100 µM | TGI (SF-268 CNS): > 100 µM | TGI (SNB-19 CNS): > 100 µM | TGI (SW-620 colon): > 100 µM | TGI (TK-10 renal): > 100 µM | TGI (UO-31 renal): > 100 µM

CCC1(C(=O)OC)CCc2c(OC)ccc(OC)c2C1=O (stereo not drawn)
TGI (A498 renal): > 100 µM | TGI (ACHN renal): > 100 µM | TGI (HCT-15 colon): > 100 µM | TGI (SF-268 CNS): > 100 µM | TGI (SNB-19 CNS): > 100 µM | TGI (SW-620 colon): > 100 µM | TGI (TK-10 renal): > 100 µM | TGI (UO-31 renal): > 100 µM

O=C1[C@@H]2C3SC(c4ccccc43)[C@@H]2C(=O)N1c1ccccc1
TGI (A498 renal): > 100 µM | TGI (ACHN renal): > 100 µM | TGI (HCT-15 colon): > 100 µM | TGI (SF-268 CNS): > 100 µM | TGI (SNB-19 CNS): > 100 µM | TGI (SW-620 colon): > 100 µM | TGI (TK-10 renal): > 100 µM | TGI (UO-31 renal): > 100 µM

O=C(CC(=O)Nc1ccccc1O)Nc1ccccc1O
TGI (A498 renal): > 100 µM | TGI (ACHN renal): 22.4 µM | TGI (HCT-15 colon): 21.8 µM | TGI (SF-268 CNS): 75.8 µM | TGI (SNB-19 CNS): > 100 µM | TGI (SW-620 colon): 17.1 µM | TGI (TK-10 renal): > 100 µM | TGI (UO-31 renal): 27 µM

COc1cc(C(=O)C/C(CCC(=O)Nc2ccc(Cl)cc2Cl)=N/NC(=O)C(N)=O)ccc1O
TGI (A498 renal): > 100 µM | TGI (ACHN renal): > 100 µM | TGI (HCT-15 colon): > 100 µM | TGI (SF-268 CNS): > 100 µM | TGI (SNB-19 CNS): > 100 µM | TGI (SW-620 colon): > 100 µM | TGI (TK-10 renal): > 100 µM | TGI (UO-31 renal): > 100 µM

CC(C)(C)OC(=O)NC1CCC[C@H]1O (stereo partly drawn)
TGI (A498 renal): > 100 µM | TGI (ACHN renal): > 100 µM | TGI (SF-268 CNS): > 100 µM | TGI (SNB-19 CNS): > 100 µM | TGI (SW-620 colon): > 100 µM | TGI (TK-10 renal): > 100 µM | TGI (UO-31 renal): > 100 µM

Cc1ccccc1NC(=O)C1C(=O)N(c2ccccc2C)C(=O)/C1=N\N (stereo not drawn)
TGI (A498 renal): > 100 µM | TGI (ACHN renal): > 100 µM | TGI (HCT-15 colon): > 100 µM | TGI (SF-268 CNS): > 100 µM | TGI (SNB-19 CNS): > 100 µM | TGI (SW-620 colon): > 100 µM | TGI (UO-31 renal): > 100 µM

C#C[C@@]1(O)[C@@H](CO)O[C@@H](n2ccc3c(N)ncnc32)[C@@H]1O
GI50 (ACHN renal): 0.56 µM | TGI (ACHN renal): 4.48 µM | GI50 (DU-145 prostate): 0.563 µM | TGI (DU-145 prostate): 6.56 µM | GI50 (HCT-15 colon): 0.892 µM | TGI (HCT-15 colon): 4.62 µM | GI50 (HS 578T breast): 4.67 µM | TGI (HS 578T breast): > 100 µM | GI50 (SF-268 CNS): 2.33 µM | TGI (SF-268 CNS): 26.1 µM | GI50 (SNB-19 CNS): 1.62 µM | TGI (SNB-19 CNS): 6.61 µM | GI50 (SW-620 colon): 0.493 µM | TGI (SW-620 colon): 12.7 µM | GI50 (TK-10 renal): 2.65 µM | TGI (TK-10 renal): 9.48 µM
